The text below walks through data of US7244462B2, “Amino acid derivative and sweetening agent” (Ajinomoto Co., Inc., priority 2003, dated 2007).

Series [1] can be described thus: Sensory test: degree of sweetness compared with sucrose (sugar) solution. The settings on record: for Degree of sweetness (multiplying power of sweetness): compared with a 4 to 5% sucrose solution. An excerpt:
The derivative of the invention, i.e., the compound and the form of the salt thereof of the invention was proven to have strong sweetness with a quality of sweetness that is similar to sugar, as a result of a sensory test. For example, the degree of sweetness of 2-amino-4,5-dihydroxy-4-(3-indolylmethyl)pentanoic acid (mixture of the (2S,4S) isomer and (2R,4R) isomer at a ratio of 1:1) was about 1250 times as high as that of sugar, and the degree of sweetness of (2R,4R)-2-amino-4-hydroxy-4-ethylcarbamoyl-4-(3-indolylmethyl)butyric acid was about 1600 times as high as that of sugar. […] Structure and results of the sensory test on several synthesized amino acid derivatives (represented by the following formula (1)) are presented in Table 1.

Series [2] can be described thus: Stability (half life) in aqueous acidic solution, citrate buffer pH 3, 70° C. The class given is physicochemical. The settings on record: citrate buffer solution of pH=3, at 70° C.
The conditions of series [3]: (2S,4S) isomer derived from natural plant; literature report; cited from earlier work.
Setting [4] is: compared with a 5% sugar solution.

Where “and” joins values, the source holds several entries; their conditions need not be identical. Equal values may be shown once. Read-outs that look alike come from different tables or passages of the source. Peptide text beside a SMILES is read from it.

As to `NC(CC(O)(CO)Cc1c[nH]c2ccccc12)C(=O)O` (mixture of isomers) [Compound No. 3, (2S,4S)- and (2R,4R)-2-amino-4,5-dihydroxy-4-(3-indolylmethyl)pentanoic acid mixture], the “Degree of sweetness (multiplying power of sweetness)” value in series [1] is on record as “about 1250”. Further, the Degree of sweetness result in series [1] (setting [4]) is “About 1250 times”; in series [1] (sensory test), “about 1250 times as high as that of sugar”.
Consider `NC(CC(O)(CO)Cc1c[nH]c2ccccc12)C(=O)O` (mixture of isomers) [Compound No. 4, (2S,4R)- and (2R,4S)-2-amino-4,5-dihydroxy-4-(3-indolylmethyl)pentanoic acid mixture], for which the “Degree of sweetness (multiplying power of sweetness)” value in series [1] is on record as “about 750”. In addition, the Degree of sweetness entry in series [1] (setting [4]) is given as “About 750 times”.
Turning to `N[C@H](C[C@H](Cc1c[nH]c2ccccc12)C(=O)O)C(=O)O` [Compound No. 1, (2R,4S)-2-amino-4-(3-indolyl)methyl pentandioic acid], the “Degree of sweetness (multiplying power of sweetness)” value in series [1] was “about 200”. In addition, in series [1] (setting [4]), the Degree of sweetness entry is listed as “About 200 times”.
As for `Cc1ccc2c(CC(O)(C[C@H](N)C(=O)O)C(=O)O)c[nH]c2c1` (stereo partly drawn) [Compound No. 2, 4-hydroxy-4-(6-methylindole-3-ylmethyl)glutamic acid], in series [1], the “Degree of sweetness (multiplying power of sweetness)” value was “about 650”. For the same compound, the Degree of sweetness entry in series [1] (setting [4]) is given as “About 650 times”.
On to `CC(O)(Cc1c[nH]c2ccccc12)CC(N)C(=O)O` (stereo not drawn) [Compound No. 5, 2-amino-4-hydroxy-4-(3-indolylmethyl)pentanoic acid], for which, in series [1], the “Degree of sweetness (multiplying power of sweetness)” value is “about 900”. Also, the Degree of sweetness result in series [1] (setting [4]) is on record as “About 900 times”.
On to `CCC(O)(Cc1c[nH]c2ccccc12)CC(N)C(=O)O` (stereo not drawn) [Compound No. 6, 2-amino-4-hydroxy-4-(3-indolylmethyl)hexanoic acid], for which the “Degree of sweetness (multiplying power of sweetness)” value in series [1] was “about 500”. Further, in series [1] (setting [4]), the Degree of sweetness result is given as “About 500 times”.
Taken in the same sequence, the figures for `CNC(=O)[C@@](O)(Cc1c[nH]c2ccccc12)C[C@@H](N)C(=O)O` [Compound No. 7, (2R,4R)-2-amino-4-hydroxy-4-methylcarbamoyl-4-(3-indolylmethyl)butyric acid] were “about 200” and “About 200 times”.
As to `CCNC(=O)[C@@](O)(Cc1c[nH]c2ccccc12)C[C@@H](N)C(=O)O` [Compound No. 8, (2R,4R)-2-amino-4-hydroxy-4-ethylcarbamoyl-4-(3-indolylmethyl)butyric acid], the half-life in series [2] was approximately 97 h. The “Degree of sweetness (multiplying power of sweetness)” value in series [1] was “about 1600”. The Degree of sweetness result in series [1] (setting [4]) was “About 1600 times”; in series [1] (sensory test), “about 1600 times as high as that of sugar”.
Consider `COC(=O)[C@H](Cc1ccccc1)NC(=O)[C@@H](N)CC(=O)O` [aspartame, reference compound] (H-Asp-Phe-OMe), for which the half-life in series [2] was approximately 35 h.
As to `N[C@@H](C[C@@](O)(Cc1c[nH]c2ccccc12)C(=O)O)C(=O)O` [monatin, (2S,4S)-2-amino-4-carboxy-4-hydroxy-5-(3-indolyl)pentanoic acid], in series [3], the Degree of sweetness was 800 times of sucrose and 1400 times of sucrose.
